Results reported in patent US11536729B2, “Method of identifying novel protein aggregation inhibitors based on chemical kinetics” (Cambridge Enterprise Limited, priority 2016, dated 2022).
Entries after “also recorded” stand apart in the source; their conditions may differ. Like-named read-outs stand apart in the source and are kept apart here.

Assays:
[1] = system: C. elegans CL2122 (control-worm); assay: C. elegans motility assay, control-worm model; set-up: species or system Caenorhabditis elegans; conditions: in vivo
Method: Standard conditions were used for Caenorhabditis elegans propagation at 20° C. (53). Briefly, animals were synchronized by hypochlorite bleaching, hatched overnight in M9 buffer, and subsequently cultured on nematode growth medium (NGM, USP agar) plates seeded with the E. coli strain OP50. Saturated cultures of OP50 were grown by inoculating 50 mL of LB medium with OP50 and incubating the culture for 16 h at 37° C. NGM plates were seeded with bacteria by adding 350 μl of saturated OP50 to each plate and leaving the plates at room temperature for 2-3 days. […]
(§1) All populations were cultured at 20° C. and developmentally synchronized from a 4 h egg-lay. At 64-72 h post egg-lay (time zero) individuals were shifted to 23° C. or 25° C., and body movement assessed over time as indicated. At different ages, animals were washed out of the plates with M9 and spread over an un-seeded 6 cm plate, after which their movements were recorded at 30 fps using a home-made microscopic setup, at 0.75× magnification, for 30 s or 1 min. 200 animals were counted per experiment unless stated otherwise. […]
(§2) Videos were elaborated using ImageJ (National Institutes of Health, Bethesda, Md., USA), and body bends were quantified using the wrMTrck plug-in (http://www.phage.dk/plugins/wrmtrck.html), developed by Jesper Søndergaard Pedersen.

[2] = system: C. elegans GMC101 (Aβ-worm); assay: C. elegans motility assay (body bends), Aβ-worm model; type: in vivo, Caenorhabditis elegans
Method: Standard conditions were used for Caenorhabditis elegans propagation at 20° C. (53). Briefly, animals were synchronized by hypochlorite bleaching, hatched overnight in M9 buffer, and subsequently cultured on nematode growth medium (NGM, USP agar) plates seeded with the E. coli strain OP50. Saturated cultures of OP50 were grown by inoculating 50 mL of LB medium with OP50 and incubating the culture for 16 h at 37° C. NGM plates were seeded with bacteria by adding 350 μl of saturated OP50 to each plate and leaving the plates at room temperature for 2-3 days. On day 3 after synchronization, animals were placed on NGM plates containing 5-fluoro-2′deoxy-uridine (FUDR) ([…], unless stated otherwise) to inhibit growth of offspring.
The following strains were used: dvls100[unc-54p::A-beta-1-42::unc-54 3′-UTR+mtl-2p::GFP] (GMC101). mtl-2p::GFP produces constitutive expression of GFP in intestinal cells. unc-54p::A-beta-1-42 expresses full-length human Aβ42 peptide in bodywall muscle cells that aggregates in vivo. Shifting L4 or young adult animals from 20 C° to 25 C° causes paralysis dvls15[pPD30.38 (unc-54 vector)+mtl-2::GFP (pCL26)] (CL2122), control strain for GMC101 (57). Phenotype apparently WT. C. elegans var Bristol (N2). Generation time is about 3 days. Brood size is about 350. Isolated from mushroom compost near Bristol, England. […]
as §1, §2

[3] = system: SH-SY5Y human neuroblastoma cells; type: cell-based; conditions: 0.5 μM Aβ42, 10 μM bexarotene
Method: Aβ42 oligomers are known to be toxic to cells leading to apoptosis and to cellular death. […] SH-SY5Y human neuroblastoma cells were cultured under standard conditions, at 37° C. in a humidified incubator with 5% CO2. Cells were seeded at a density of 25,000 per well in a white-walled, clear-bottomed 96-well plate and cultured for 24 h in MEM/F12(1:1)/10% Fetal Bovine Serum (FBS) (Gibco). The culture medium was then replaced with pre-warmed phenol red free DMEM without FBS into which the peptide samples or NaPO4 buffer were diluted 1:1. […] The aggregation reaction was set up as above except for the buffer from which NaN3 was removed due to its toxicity. […] All the specified time points correspond to Aβ42 in the lag phase in order to monitor inhibition at the early stage of the aggregation. […] The cells were cultured in the presence of the peptides, buffer and media for further 24 h before the cytotoxic effect was measured.
Cell medium diluted with the same buffer that was used in these experiments was included in some wells in order to evaluate the intrinsic fluorescence of the media and bexarotene.
For the positive control, staurosporine (1 μM) was added to the cells for 2 hours. Caspase-3/7 activity was measured using the Apo-ONE Homogeneous Caspase-3/7 assay (Promega). The fluorogenic caspase-3/7 substrate, rhodamine 110 bis-(N-CBZ-L-aspartyl-L-glutamyl-L-valyl-aspartic acid amide) was diluted 1:100 in the lysis buffer provided and added to the cell medium at a 1:1 ratio. The fluorescence was measured at excitation 480 nm/emission 520 nm in an Optima FluoStar plate reader. In each of the used plates, the toxicity was assessed according to a negative and a positive control.
For comparative purposes between different plates, we normalized the fluorescence values using a parabolic equation (y=ax^b), which corresponds to the evolution of the oligomers as a function of time. Negative and positive controls were set to 1 and 10, respectively. […] Statistical analyses were performed using GraphPad prism 6.0. Results are expressed as mean±SEM.

Compound: C=C(c1ccc(C(=O)O)cc1)c1cc2c(cc1C)C(C)(C)CCC2(C)C [bexarotene]
- effect in control-worm model [1]: did not show any effects
- motility (frequency of body bends) of Aβ-worms ([2]; 10 μM, two bursts at L1 and L4 larval stages): maintained completely; also recorded: Complete recovery
- motility of Aβ-worms, concentration dependence ([2]; 5 to 10 μM added at larval stages): concentration-dependent maintenance
- effect on motility of Aβ-worms when added only at day 2 ([2]; added only at day 2): did not show any detectable effect
- incubation time after which detectable toxic Aβ42 species are formed in presence of compound ([3]; 37° C.): 7 h
- toxicity (caspase-3) of Aβ42 species in absence of bexarotene, higher than in its presence ([3]; aliquot after 0.3 h incubation): 65±5%
- toxicity (caspase-3) of Aβ42 species in absence of bexarotene, higher than in its presence ([3]; aliquot after 4 h incubation): 65±5%
- level of toxicity generated in the presence of bexarotene ([3]; aliquot after 7 h incubation): increased to a value similar to that observed in its absence
